Consider 5 molecules from US5698552A, “Hetrazepinoid amides” (Boehringer Ingelheim KG, priority 1990, dated 1997).

Experiment [1] concerns PAF-induced platelet aggregation. Description: Inhibition of PAF-induced platelet aggregation in vitro (Born and Cross method). The experiment is classed as cell-based, healthy male and female donors (human). The note with it: PAF 5 ×10^-8 M; human platelet-rich plasma (TRP); n=4; read-out: PAF-induced platelet aggregation (inhibition, IC50 = concentration at 50% aggregation inhibition). As for the experimental part: 200 ml samples of blood were taken from a non-obstructed vein, with the aid of a plastic syringe containing 3.8% sodium citrate solution, from healthy male and female donors aged from 18 to 35 years who had not taken any medicaments (aspirin or other non-steroid anti-inflammatories) for several days before the blood withdrawal. The ratio of sodium citrate solution:blood was 1:9. The citrated blood was centrifuged in plastic tubes at 150 ×g (=1,200 rpm) at room temperature for 20 min (Heraeus Christ bench centrifuge 124).
The platelet aggregation was measured in vitro by the method of Born and Cross (1963), an aggregation inducer (PAF) being added to the TRP, while stirring constantly. For the measurement, 0.8 ml TRP and 0.2 ml modified Tyrode's solution (see below) were introduced into 1 ml plastic cells, each of which contained a small metal pin (stirrer, 1,000 rpm). The test substance was added in a volume of 10 μl for 2 to 3 min before inducing the aggregation. Either DMSO and water or a dilute HCl solution was used as the solvent. The control batches contained the corresponding volume of these solvents. After recording the initial absorption (2-3 min), aggregation was induced. PAF (5 ×10^-8 M; Bachem Feinchemikalien) was introduced into the cell in a volume of 10 μl.
The modified Tyrode's solution had the following composition: 136.9 mM NaCl; 2.68 mM KCl; 0.5 mM MgCl2; 1.8 mM CaCl2; 0.42 mM NaH2 PO4; 5.55 mM glucose and 11.9 mM NaHCO3.
To evaluate substance effects, the maximum of the first aggregation wave was used. The maximum absorption induced by the aggregation inducer (=maximum aggregation=100%) was simultaneously run in a parallel batch (in the 2nd channel of the aggregometer) to each test batch and used as the 100% value. The aggregation value achieved under the action of the test substance was quoted as % of the control value (batch).
Concentration/effect curves with a random sample size of in each case n=4 were plotted with the aid of this method and IC50 values (concentration at 50% aggregation inhibition) were calculated.

The target of another experiment is T1, PAF receptor (Homo sapiens, UniProt P25105).
T1 construct: determined using human thrombocytes; endogenous in cells; host or cells: human thrombocytes (platelets)
T1 sequence (P25105 whole entry): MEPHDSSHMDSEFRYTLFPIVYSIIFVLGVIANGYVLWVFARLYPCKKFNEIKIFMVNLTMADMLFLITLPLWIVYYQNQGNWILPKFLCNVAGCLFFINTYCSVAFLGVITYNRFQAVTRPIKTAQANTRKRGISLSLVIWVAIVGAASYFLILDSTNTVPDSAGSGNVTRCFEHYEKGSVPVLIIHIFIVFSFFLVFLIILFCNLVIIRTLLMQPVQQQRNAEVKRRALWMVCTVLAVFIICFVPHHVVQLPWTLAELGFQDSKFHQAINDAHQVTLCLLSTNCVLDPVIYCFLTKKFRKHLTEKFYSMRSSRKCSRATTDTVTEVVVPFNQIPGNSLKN
The experiment can be described thus: 3H-PAF-receptor bonding on human thrombocytes (platelets). The following applies: method as in European Patent Application 368 175. The experiment is classed as binding. As for the experimental part: Then, at 20° C., 18.3 g (0.12 mol) of hydroxybenzotriazole (HOBT), 23.7 g (0.109 mol) of N-4-trifluoromethylbenzyl-N-n-propylamine and 25.6 g (0.125 mol) of dicyclohexyl-carbodiimide (DCCI) and a further 250 ml of dimethylformamide (DMF) were added. The mixture was left to react for 24 hours. It was then cooled to 5° C. and filtered. 500 ml of water were added to the filtrate and it was extracted with ethyl acetate. The combined organic phases were washed with water and saturated sodium hydrogen carbonate solution, dried with magnesium sulphate and filtered over kieselguhr/char-coal. After working up in the usual way, 50 g of colourless crystals of the title compound are obtained by crystallisation from ethanol/diisopropylether (1:1). […] (The method used is described for example in European Patent Application 368 175).

In the case of `CCCN(Cc1ccccc1)C(=O)[C@@H]1Cc2sc3c(c2C1)C(c1ccccc1Cl)=NCc1nnc(C)n1-3` [Example 2, S(-)-3-(Benzylpropylaminocarbonyl)-5-(2-chlorophenyl)-10-methyl-7H-cyclopenta[4,5]thieno[3,2-f][1,2,4]-triazolo-[4,3-a][1,4]diazepine], the IC50 in experiment [1] was found to be 49 nM. The same measure, in the same setting: next, `CCN(Cc1ccccc1)C(=O)[C@@H]1Cc2sc3c(c2C1)C(c1ccccc1Cl)=NCc1nnc(C)n1-3` [Example 6, S(-)-3-(Benzylethylaminocarbonyl)-5-(2-chlorophenyl)-10-methyl-7H-cyclopenta[4,5]thieno[3,2-f][1,2,4]triazolo-[4,3-a][1,4]diazepine]: 23 nM; `CCCCN(Cc1ccccc1)C(=O)[C@@H]1Cc2sc3c(c2C1)C(c1ccccc1Cl)=NCc1nnc(C)n1-3` [Example 7, S(-)-3-(Benzylbutylaminocarbonyl)-5-(2-chlorophenyl)-10-methyl-7H-cyclopenta[4,5]thieno-[3,2-f][1,2,4]triazolo-[4,3-a][1,4]diazepine]: 84 nM; `Cc1nnc2n1-c1sc3c(c1C(c1ccccc1Cl)=NC2)C[C@H](C(=O)N(Cc1ccccc1)Cc1ccccc1)C3` [Example 10, S(--)-3-(Dibenzylaminocarbonyl)-5-(2-chlorophenyl)-10-methyl-7H-cyclopenta[4,5]thieno-[3,2-f][1,2,4]-triazolo-[4,3-a][1,4]diazepine]: 37 nM. Consider `CCCN(Cc1ccc(C(F)(F)F)cc1)C(=O)[C@@H]1Cc2sc3c(c2C1)C(c1ccccc1Cl)=NCc1nnc(C)n1-3` [Example 18], for which the Ki – broadly, a dissociation constant, usually derived from enzyme kinetics or from competition with a known ligand – at PAF receptor amounted to 1.8 nM.
